Common to all, as to test: NCI-60 cell line screen, 48 h
Experiment [1] relates to 786-0 renal.
Experiment [2] has as its system A498 renal.
The test system of experiment [3] is COLO 205 colon.
The test system of experiment [4] is LOX IMVI melanoma.
Experiment [5] has as its system OVCAR-4 ovarian.
Experiment [6] concerns RPMI-8226 leukemia.
The test system of experiment [7] is SF-295 CNS.
Experiment [8] concerns SK-MEL-2 melanoma.
In experiment [9] the test system is SK-MEL-28 melanoma.
In experiment [10] the test system is UACC-257 melanoma.

Where “and” joins values, the source holds several entries; their conditions need not be identical. Identical values can stand only once.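 Assay format: 96-well plates, 48-hour exposure. At the GI50, growth is halved. At the TGI there is no net growth.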

From PubChem BioAssay (NCI) come the findings set out here.

In the case of `COc1cc(/C=C2/C(=O)NC(Cc3cc(OC)c(OC)c(C)c3OC)C(=O)N2Cc2ccccc2)c(OC)c(C)c1OC` (stereo not given), the TGI in [1] was above 100 µM; in experiment [2], above 100 µM; in experiment [3], 35 µM; in experiment [4] it was above 100 µM; in experiment [5] it was above 100 µM; in experiment [6] it was 91.4 µM. For the same molecule, the TGI in [7] was above 100 µM; in experiment [8], 66.8 µM; in [9], above 100 µM; in experiment [10], above 100 µM.
For the molecule `CN(C)c1ccc(O)c2c1C[C@H]1C[C@H]3[C@H](N(C)C)C(=O)C(C(N)=O)=C(O)[C@@]3(O)C(=O)C1=C2O`, the GI50 in [1] is 4.45 µM; in [2], 1.49 µM; in experiment [3], 5.51 µM; in [4] it was 3.64 µM; in experiment [5], 7.53 µM; in experiment [6], 4.28 µM. In addition, the GI50 is 2.46 µM in experiment [7], 7.52 µM in experiment [9] and 8.99 µM in experiment [10]. Further, the TGI in experiment [1] was 22.3 µM; in experiment [2], 10.5 µM; in experiment [3], 20.5 µM; in experiment [4], 31.9 µM; in [5], above 100 µM; in experiment [6] it was 31.1 µM. For the same molecule, the figures for the TGI in experiment [7], in experiment [9] and in experiment [10] were 7.99 µM, 48.4 µM and above 100 µM, respectively.
As to `C/C(=C\CC[C@]1(C)OC(C)(C)OC1CC/C(C)=C/CO[Si](c1ccccc1)(c1ccccc1)C(C)(C)C)CC/C=C/CO[Si](C)(C)C(C)(C)C` (stereo not given in full), the TGI in [1], in experiment [2], in [4], in [5], in experiment [6] and in [7] was above 100 µM each time. Moreover, the TGI in experiment [8], in [9] and in experiment [10] was above 100 µM throughout.
Consider `Cc1ccc(S(=O)(=O)Nc2nc3ccccc3nc2Nc2ccc3nsnc3c2)cc1`, for which the GI50 in [1] was 3.65 µM; in experiment [2] it was 4.85 µM and 2.86 µM; in experiment [3], 5.81 µM and 9.83 µM; in experiment [4], 3.67 µM and 3.89 µM; in [5], 3.13 µM; in experiment [6], 0.85 µM and 2.64 µM. Besides, the GI50 was 2.98 µM and 2.36 µM in experiment [7]; 2.87 µM and 3.22 µM in [8]; 4.38 µM and 4.11 µM in experiment [9]; 3.56 µM and 2.87 µM in [10]. Also, the TGI in experiment [1] is above 100 µM; in experiment [2], above 100 µM; in [3], 23.6 µM and > 100 µM; in [4], 36.1 µM and > 100 µM; in experiment [5], above 100 µM; in experiment [6] it was 21.2 µM and > 100 µM. For the same molecule, the TGI in experiment [7] was 15.7 µM and 13.3 µM; in [9], above 100 µM; in experiment [10], 27.7 µM and > 100 µM.
As to `COC(=O)[C@@]1(O)C[C@H]2O[C@]1(C)n1c3ccccc3c3c4c(c5c6ccccc6n2c5c31)C(=O)NC4`, the GI50 in experiment [1] is 0.312 µM; in [2], 0.0712 µM; in experiment [3], 0.231 µM; in experiment [4] it was 0.197 µM; in experiment [5], 1.24 µM; in experiment [6], 0.0784 µM. Further, the GI50 in experiment [7] was 0.661 µM; in experiment [8], 0.0476 µM; in [9], 0.203 µM; in [10], 0.527 µM. Besides, the TGI in experiment [1] was determined as 1.67 µM; in experiment [2], 0.585 µM; in [3], 0.692 µM; in experiment [4] it was 1.21 µM; in experiment [5] it was 2.76 µM; in [6] it was 1.33 µM. Also, the TGI in experiment [7] is 2.31 µM; in experiment [8] it was 1.61 µM; in [9], 1.26 µM; in [10], 3.33 µM.
Regarding `O=C(/C=C/c1ccc(C(F)(F)F)cc1)c1ccc(Nc2nc(NCCO)nc(N3CCOCC3)n2)cc1`, the GI50 in [1] is 1.65 µM; in [2], 1.4 µM; in experiment [3], 2.09 µM; in [4], 1.67 µM; in experiment [5], 3.05 µM; in experiment [6] it was 2.07 µM. For the same molecule, the GI50 in experiment [7] was 2.67 µM; in experiment [8], 8.66 µM; in experiment [9], 3.25 µM; in experiment [10], 3.98 µM. For the same molecule, the TGI in [1] was determined as 3.1 µM; in experiment [2], 12 µM; in experiment [3] it was 4.08 µM; in experiment [4] it was 3.11 µM; in experiment [5], 10.2 µM; in experiment [6], 5.71 µM. The TGI is 7.6 µM in experiment [7], 21.5 µM in [8], 11.5 µM in [9] and 17.8 µM in experiment [10].
In the case of `COc1ccc2nc(C)cc(Nc3ccccc3O)c2c1`, the GI50 is 18.1 µM in [1]; 8.07 µM in [2]; 18.3 µM in experiment [3]; 18.5 µM in [4]; 22.4 µM in experiment [5]; 17.2 µM in experiment [6]. Moreover, the GI50 in [7] is 24.5 µM; in [8], 27.1 µM; in [9] it was 21.3 µM; in experiment [10] it was 19 µM. Further, the TGI in [1] was 42.1 µM; in experiment [2] it was 45.2 µM; in [3], 36.5 µM; in experiment [4], 39 µM; in [5] it was above 100 µM; in experiment [6] it was 51.4 µM. For the same molecule, the TGI is above 100 µM in [7], 86.8 µM in [8], 57.3 µM in experiment [9] and 43.6 µM in experiment [10].
For the molecule `COc1ccccc1/C=N/N=C(\N)NO`, the TGI was 90 µM in [1]; above 100 µM in experiment [2]; above 100 µM in experiment [3]; above 100 µM in [4]; above 100 µM in [5]; above 100 µM in experiment [6]. For the same molecule, the TGI is 12.3 µM in experiment [7], above 100 µM in [8], above 100 µM in experiment [9] and above 100 µM in experiment [10].
On to `Cc1cccc2c1C/C(=C1\CCc3c(C)cccc31)C2=O`, for which the TGI in experiment [1], in experiment [2], in experiment [3], in experiment [4], in experiment [5] and in experiment [7] was above 100 µM throughout. Besides, the TGI in experiment [8], in experiment [9] and in [10] was above 100 µM in each case.
